Measurements taken from patent US20060264460A1 (Wyeth, priority 2005, published 2006).

Each compound was assayed against T1, human Cot/Tpl2 kinase (Homo sapiens, UniProt P41279) (assay: Tpl2/Cot kinase assay: GST-MEK1 phosphorylation detected by ELISA (DELFIA Eu)). Conditions: Table 2; Tpl2/Cot kinase, GST-MEK1 substrate, 50 uM ATP.
T1 construct: human Cot/Tpl2 kinase construct encoding residues 30-398; 6His (N); made in house; host or cells: Sf9 insect cells, baculovirus system (BD Biosciences)
Assay type: biochemical
Procedure, shortened: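 His-tagged human Tpl2 from Sf9 cells, Ni-affinity and size-exclusion purified (monomer). 0.4 nM Tpl2 with 35 nM GST-MEK1, 50 uM ATP, MOPS pH 7.2, 1% DMSO, 1 h at 30° C; EDTA stop. MEK1 Ser217/221 phosphorylation detected by anti-phospho-MEK1 and Eu-labelled secondary ELISA; IC50 fitted.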

T1 sequence (P41279 30-398): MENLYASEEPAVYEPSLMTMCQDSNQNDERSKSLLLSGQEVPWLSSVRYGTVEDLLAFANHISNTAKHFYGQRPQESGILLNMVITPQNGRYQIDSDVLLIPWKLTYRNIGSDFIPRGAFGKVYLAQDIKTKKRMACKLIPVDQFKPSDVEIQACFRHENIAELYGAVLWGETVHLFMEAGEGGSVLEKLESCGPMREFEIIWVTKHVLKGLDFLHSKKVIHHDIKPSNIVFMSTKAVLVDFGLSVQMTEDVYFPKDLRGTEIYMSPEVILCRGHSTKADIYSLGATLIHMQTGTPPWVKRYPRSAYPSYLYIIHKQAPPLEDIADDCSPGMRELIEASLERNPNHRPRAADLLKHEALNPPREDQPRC

Compound	IC50 [nM]
N#Cc1cnc2c(Cl)cc(NCc3cn(CCOC(N)=O)nn3)cc2c1Nc1ccc(F)c(Cl)c1 [Example 599]	5.9
N#Cc1cnc2c(Cl)cc(NCC(=O)NCc3ccncc3)cc2c1Nc1ccc(F)c(Cl)c1 [Example 600]	48
N#Cc1cnc2c(Cl)cc(NCC(=O)Nc3cccnc3)cc2c1Nc1ccc(F)c(Cl)c1 [Example 601]	110
N#Cc1cnc2c(Cl)cc(NCC(=O)Nc3ccncc3)cc2c1Nc1ccc(F)c(Cl)c1 [Example 602]	2400
CN(C)CCCNC(=O)CNc1cc(Cl)c2ncc(C#N)c(Nc3ccc(F)c(Cl)c3)c2c1 [Example 603]	> 3000
N#Cc1cnc2c(Cl)cc(NCC(=O)NCCCN3CCOCC3)cc2c1Nc1ccc(F)c(Cl)c1 [Example 604]	> 3000
CN(C)CCNC(=O)CNc1cc(Cl)c2ncc(C#N)c(Nc3ccc(F)c(Cl)c3)c2c1 [Example 605]	1600
COCCCNC(=O)CNc1cc(Cl)c2ncc(C#N)c(Nc3ccc(F)c(Cl)c3)c2c1 [Example 606]	230
N#Cc1cnc2c(Cl)cc(NCC(=O)NCc3ccccn3)cc2c1Nc1ccc(F)c(Cl)c1 [Example 607]	330
N#Cc1cnc2c(Cl)cc(NCC(=O)NCCN3CCOCC3)cc2c1Nc1ccc(F)c(Cl)c1 [Example 608]	530
CN(CCCn1cc(CNc2cc(Cl)c3ncc(C#N)c(Nc4ccc(F)c(Cl)c4)c3c2)nn1)C1CCCCC1 [Example 609]	1.8
CC1CC(C)CN(CCCn2cc(CNc3cc(Cl)c4ncc(C#N)c(Nc5ccc(F)c(Cl)c5)c4c3)nn2)C1 (stereo not drawn) [Example 610]	150
CN(Cc1cn(C)cn1)c1cc(Br)c2ncc(C#N)c(Nc3ccc(F)c(Cl)c3)c2c1 [Example 611]	> 3000
CN1CCCC1CCNC(=O)CNc1cc(Cl)c2ncc(C#N)c(Nc3ccc(F)c(Cl)c3)c2c1 (stereo not drawn) [Example 612]	> 3000
CN(C)C(=O)Cn1cc(CNc2cc(Cl)c3ncc(C#N)c(Nc4ccc(F)c(Cl)c4)c3c2)nn1 [Example 613]	0.54
CN(C)C(=O)CCn1cc(CNc2cc(Cl)c3ncc(C#N)c(Nc4ccc(F)c(Cl)c4)c3c2)nn1 [Example 614]	10
CN1CC(CCn2cc(CNc3cc(Cl)c4ncc(C#N)c(Nc5ccc(F)c(Cl)c5)c4c3)nn2)N(C)C1=O (stereo not drawn) [Example 615]	6.1
CCN1CC(CCn2cc(CNc3cc(Cl)c4ncc(C#N)c(Nc5ccc(F)c(Cl)c5)c4c3)nn2)N(c2ccccc2)C1=O (stereo not drawn) [Example 616]	25

Compound	IC50 [nM]
CCN1CC(CCn2cc(CNc3cc(Cl)c4ncc(C#N)c(Nc5ccc(F)c(Cl)c5)c4c3)nn2)N(c2ccccc2)C1=S (stereo not drawn) [Example 617]	130
CC(C)(C)OC(=O)N1CCC[C@H]1CNc1cc(Cl)c2ncc(C#N)c(Nc3ccc(F)c(Cl)c3)c2c1 [Example 618]	> 3000
N#Cc1cnc2c(Cl)cc(NC[C@@H]3CCCN3)cc2c1Nc1ccc(F)c(Cl)c1 [Example 619]	> 3000
N#Cc1cnc2c(Br)cc(NCc3cn(Cc4ccccn4)cn3)cc2c1Nc1ccc(F)c(Cl)c1 [Example 620]	34
N#Cc1cnc2c(Cl)cc(NCc3cn(Cc4ccccn4)cn3)cc2c1Nc1ccc(F)c(Cl)c1 [Example 621]	41
N#Cc1cnc2c(Cl)cc(NCc3cn(Cc4ccncc4)cn3)cc2c1Nc1ccc(F)c(Cl)c1 [Example 622]	5.3
CCN(C[C@@H]1CCCN1C(=O)OC(C)(C)C)c1cc(Cl)c2ncc(C#N)c(Nc3ccc(F)c(Cl)c3)c2c1 [Example 623]	> 3000
CN1CCCN(CCCn2cc(CNc3cc(Br)c4ncc(C#N)c(Nc5ccc(F)c(Cl)c5)c4c3)nn2)CC1 [Example 624]	70
CN1CCCN(CCCn2cc(CNc3cc(Cl)c4ncc(C#N)c(Nc5ccc(F)c(Cl)c5)c4c3)nn2)CC1 [Example 625]	48
CN1CCN(CCCn2cc(CNc3cc(Br)c4ncc(C#N)c(Nc5ccc(F)c(Cl)c5)c4c3)nn2)CC1 [Example 626]	29
CN1CCN(CCCn2cc(CNc3cc(Cl)c4ncc(C#N)c(Nc5ccc(F)c(Cl)c5)c4c3)nn2)CC1 [Example 627]	39
N#Cc1cnc2c(Cl)cc(NC3CCCC3Cl)cc2c1Nc1ccc(F)c(Cl)c1 (stereo not drawn) [Example 628]	> 3000
N#Cc1cnc2c(Cl)cc(NC3CCCC3N=[N+]=[N-])cc2c1Nc1ccc(F)c(Cl)c1 (stereo not drawn) [Example 629]	420
N#Cc1cnc2c(Br)cc(NCC(=O)O)cc2c1Nc1ccc(F)c(Cl)c1 [Example 630]	140
N#Cc1cnc2c(Cl)cc(NCC(O)CO)cc2c1Nc1ccc(F)c(Cl)c1 (stereo not drawn) [Example 631]	590
N#Cc1cnc2c(Br)cc(NCc3cn(C4CCCC4)cn3)cc2c1Nc1ccc(F)c(Cl)c1 [Example 632]	230
CC(C)n1cnc(CNc2cc(Br)c3ncc(C#N)c(Nc4ccc(F)c(Cl)c4)c3c2)c1 [Example 633]	> 3000
CC(=O)Nc1ccc(-n2cc(CNc3cc(Cl)c4ncc(C#N)c(Nc5ccc(F)c(Cl)c5)c4c3)nn2)cc1 [Example 634]	35

Results, then the compound that gave them:

IC50 [nM]	Compound
67	N#Cc1cnc2c(Cl)cc(NC3CCCC3n3cc(CCO)nn3)cc2c1Nc1ccc(F)c(Cl)c1 (stereo not drawn) [Example 635]
> 3000	CN(C)Cc1cn(C2CCCC2Nc2cc(Cl)c3ncc(C#N)c(Nc4ccc(F)c(Cl)c4)c3c2)nn1 (stereo not drawn) [Example 636]
> 3000	N#Cc1cnc2c(Cl)cc(NCC(CO)c3ccncc3)cc2c1Nc1ccc(F)c(Cl)c1 (stereo not drawn) [Example 637]
> 3000	N#Cc1cnc2c(Br)cc(NCc3cn(COCc4ccccc4)nn3)cc2c1Nc1ccc(F)c(Cl)c1 [Example 638]
200	CC(CNc1cc(Cl)c2ncc(C#N)c(Nc3ccc(F)c(Cl)c3)c2c1)c1ccncc1 (stereo not drawn) [Example 639]
> 3000	CCN(C[C@@H]1CCCN1)c1cc(Cl)c2ncc(C#N)c(Nc3ccc(F)c(Cl)c3)c2c1 [Example 640]

Same assay, conditions: Tpl2/Cot kinase, GST-MEK1 substrate, 50 uM ATP

IC50 [nM]	Compound
> 3000	CCN(C[C@@H]1CCCN1C(C)=O)c1cc(Cl)c2ncc(C#N)c(Nc3ccc(F)c(Cl)c3)c2c1 [Example 644]
> 3000	CN(C)CC1CCCCC1Nc1cc(Cl)c2ncc(C#N)c(Nc3ccc(F)c(Cl)c3)c2c1 (stereo not drawn) [Example 646]
6.9	CN1CCCC1CCNC(=O)Cn1cc(CNc2cc(Cl)c3ncc(C#N)c(Nc4ccc(F)c(Cl)c4)c3c2)nn1 (stereo not drawn) [Example 651]
> 40000	CC(C)(C)OC(=O)N1CCC(Nc2ccc3ncc(C#N)c(Nc4ccc(F)c(Cl)c4)c3c2)CC1 [Example 656]
1700	N#Cc1cnc2ccc(NC3CCN(Cc4ccccc4)CC3)cc2c1Nc1ccc(F)c(Cl)c1 [Example 657]
25500	CC(C)N1CCC(Nc2ccc3ncc(C#N)c(Nc4ccc(F)c(Cl)c4)c3c2)CC1 [Example 658]
> 40000	CCN1CCC(Nc2ccc3ncc(C#N)c(Nc4ccc(F)c(Cl)c4)c3c2)C(C)C1 (stereo not drawn) [Example 659]
4700	CC(=O)Nc1cc(Br)c2ncc(C#N)c(Nc3ccc(F)c(Cl)c3)c2c1 [Example 660]
1700	N#Cc1cnc2c(Br)cc(NCc3cn(C45CC6CC(CC(C6)C4)C5)nn3)cc2c1Nc1ccc(F)c(Cl)c1 [Example 661]
20	CN(C)CCCn1cc(CNc2cc(Br)c3ncc(C#N)c(Nc4ccc(F)c(Cl)c4)c3c2)nn1 [Example 662]
24	CN(C)CCn1cc(CNc2cc(Br)c3ncc(C#N)c(Nc4ccc(F)c(Cl)c4)c3c2)nn1 [Example 663]
200	Cn1cnc(CNc2cc(Br)c3ncc(C#N)c(Nc4ccc(F)c(Cl)c4)c3c2)n1 [Example 664]
